According to patent publication US20240279232A1, “USE OF SUBSTITUTED 5-(4-METHYL-6-PHENYL-4H-BENZO[F]IMIDAZO[1,5-A][1,4] DIAZEPIN-3-YL)-1,2,4-O[…] THE TREATMENT OF INFLAMMATORY CONDITIONS” (priority 2021, published 2024):

Experiments:
iNOS mRNA = experiment: iNOS RT-qPCR in activated microglia; assay type: cell-based, mouse; conditions: 10 μM
Procedure: Mouse microglia were activated with IFNγ/LPS and treated with vehicle or 10 μM GL-IV-03. mRNA was isolated after 15 min, 1 h, 3 h and 6 h and iNOS was quantified using RT-qPCR. Cycle numbers for each sample were normalized to GAPDH using the ΔCt method (n=3). Mouse microglia were activated with IFNγ/LPS and treated with vehicle or 10 μM GL-IV-03 for 24 h. Cellular protein was extracted and analyzed with the mouse iNOS ELISA kit from Abcam (n=3). *, (p<0.05), ** (p<0.01) or *** (p<0.001) significance was calculate with ANOVA.
iNOS RT-qPCR. 1×10^6 mouse microglia cells were plated in 6 well plates (VWR, 10062-892) in 1-2 mL of media, activated with 50 ng/ml LPS (Invivogen, NC9836) and 150 U/mL IFNγ (R&D Systems, 485MI100), and treated with compounds of interest. […] Plates were incubated for stated times at 37° C. and 5% CO2. mRNA was collected using QIAshredder (Qiagen, 79654) and RNeasy Mini Kit (Qiagen, 74104). mRNA was analyzed using the QuantiFast SYBR Green RT-PCR kit (Qiagen, 204154) along with iNOS primers (F. 5′-ACATCAGGTCGGCCATCACT-3′, R: 5′-CGTACCGGATGAGCTGTGAAT-3′). Expected product size was 87 bp. Data were acquired using an Eppendorf Mastercycler Pro and analyzed by the Delta Ct method. Each measurement was carried out in triplicate and significance analyzed by ANOVA. […]

HERG = HERG (Homo sapiens, UniProt Q12809); experiment: PDSP primary HERG binding; conditions: PDSP primary screening
Procedure: (§1) Because reduction of NO could not be reversed by GABAAR antagonists, the possible binding of MP-IV-010 to other cellular receptors was evaluated in collaboration with the NIMH Psychoactive Drug Screening Program.
(§2) Psychoactive Drug Screening Program. Detailed protocols for the primary and secondary radioligand binding assays can be found in the National Institute of Mental Health's Psychoactive Drug Screening Program (NIMH PDSP) Assay Protocol Book. Briefly, primary and secondary radioligand binding assays are carried out in a final of volume of 125 μL per well in appropriate binding buffer. The radioactive ligand concentration is close to the Kd. Total binding and nonspecific binding are determined in the absence and presence of 10 μM of appropriate reference compound, respectively. In brief, plates are usually incubated at room temperature and in the dark for 90 min. Reactions are stopped by vacuum filtration onto 0.3% polyethyleneimine (PEI) soaked 96-well filter mats using a 96-well Filtermate harvester, followed by three washes with cold PBS buffer. Scintillation cocktail is then melted onto the microwave-dried filters on a hot plate and radioactivity counted in a Microbeta counter. The data (n=6) were analyzed by nonlinear regression.

Alpha2B = Alpha2B (Homo sapiens, UniProt P18089); experiment: PDSP primary binding Alpha2B; conditions: PDSP primary screening
Procedure: as §1, §2

M1 = M1 (Homo sapiens, UniProt P11229); experiment: PDSP primary binding M1; conditions: PDSP primary screening
Procedure: as §1, §2

H2 = H2 (Homo sapiens, UniProt P25021); experiment: PDSP primary binding H2; conditions: PDSP primary screening
Procedure: as §1, §2

σ2 receptor = target: T1, σ2 receptor (Homo sapiens, UniProt Q5BJF2); experiment: σ2 receptor binding (3H-ditolylguanidine, HEK cell lysate)
T1 construct: expressed in transfected cells; host or cells: HEK cells (stably transfected)
Procedure: as §2

5-HT1D = 5-HT1D (Homo sapiens, UniProt P28221); experiment: PDSP primary binding 5-HT1D; conditions: PDSP primary screening
Procedure: as §1, §2

D2 = D2 (Homo sapiens, UniProt P14416); experiment: PDSP primary binding D2; conditions: PDSP primary screening
Procedure: as §1, §2

M3 = M3 (Homo sapiens, UniProt P20309); experiment: PDSP primary binding M3; conditions: PDSP primary screening
Procedure: as §1, §2

5-HT1A = 5-HT1A (Homo sapiens, UniProt P08908); experiment: PDSP primary binding 5-HT1A; conditions: PDSP primary screening
Procedure: as §1, §2

T1 sequence (Q5BJF2 whole entry, species assumed): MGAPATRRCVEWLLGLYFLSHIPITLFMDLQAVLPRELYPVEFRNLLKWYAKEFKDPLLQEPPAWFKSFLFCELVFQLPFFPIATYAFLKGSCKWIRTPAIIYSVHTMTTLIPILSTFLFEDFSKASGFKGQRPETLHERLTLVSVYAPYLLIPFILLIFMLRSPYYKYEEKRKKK
M1, sequence (P11229 whole entry): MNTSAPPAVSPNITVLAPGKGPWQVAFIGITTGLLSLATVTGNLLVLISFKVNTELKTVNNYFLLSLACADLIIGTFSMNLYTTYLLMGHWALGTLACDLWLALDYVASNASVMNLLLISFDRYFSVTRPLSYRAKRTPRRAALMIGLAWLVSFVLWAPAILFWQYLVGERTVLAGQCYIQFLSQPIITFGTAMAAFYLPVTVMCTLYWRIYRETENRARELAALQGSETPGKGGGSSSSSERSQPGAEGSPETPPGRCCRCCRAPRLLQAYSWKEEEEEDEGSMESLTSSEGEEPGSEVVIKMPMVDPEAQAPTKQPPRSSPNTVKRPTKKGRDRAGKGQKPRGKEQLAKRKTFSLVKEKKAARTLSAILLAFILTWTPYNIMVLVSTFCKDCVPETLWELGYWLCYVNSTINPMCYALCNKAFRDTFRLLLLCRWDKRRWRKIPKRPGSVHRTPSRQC
H2, sequence (P25021 whole entry): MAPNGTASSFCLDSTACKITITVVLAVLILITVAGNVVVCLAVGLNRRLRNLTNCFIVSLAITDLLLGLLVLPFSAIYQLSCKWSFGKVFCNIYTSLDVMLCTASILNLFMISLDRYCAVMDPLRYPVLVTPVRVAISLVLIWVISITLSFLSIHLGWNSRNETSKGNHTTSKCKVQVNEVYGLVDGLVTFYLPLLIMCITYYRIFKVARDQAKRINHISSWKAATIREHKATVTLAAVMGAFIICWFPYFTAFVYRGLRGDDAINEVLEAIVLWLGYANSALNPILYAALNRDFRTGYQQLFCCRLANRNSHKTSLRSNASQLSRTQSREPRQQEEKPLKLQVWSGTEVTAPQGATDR
Alpha2B, sequence (P18089 whole entry): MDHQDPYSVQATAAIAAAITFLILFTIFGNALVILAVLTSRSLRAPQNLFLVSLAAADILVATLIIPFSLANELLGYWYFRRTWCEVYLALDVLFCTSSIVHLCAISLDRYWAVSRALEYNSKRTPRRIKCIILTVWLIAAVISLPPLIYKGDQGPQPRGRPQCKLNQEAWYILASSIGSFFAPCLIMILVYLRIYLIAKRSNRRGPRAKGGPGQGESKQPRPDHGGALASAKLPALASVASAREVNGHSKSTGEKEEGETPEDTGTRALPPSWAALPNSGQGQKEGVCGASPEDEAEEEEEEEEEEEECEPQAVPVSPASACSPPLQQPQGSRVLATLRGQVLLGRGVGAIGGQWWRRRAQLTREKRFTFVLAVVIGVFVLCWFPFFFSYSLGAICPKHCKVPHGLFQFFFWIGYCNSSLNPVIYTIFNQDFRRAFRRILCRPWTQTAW
5-HT1A, sequence (P08908 whole entry, species assumed): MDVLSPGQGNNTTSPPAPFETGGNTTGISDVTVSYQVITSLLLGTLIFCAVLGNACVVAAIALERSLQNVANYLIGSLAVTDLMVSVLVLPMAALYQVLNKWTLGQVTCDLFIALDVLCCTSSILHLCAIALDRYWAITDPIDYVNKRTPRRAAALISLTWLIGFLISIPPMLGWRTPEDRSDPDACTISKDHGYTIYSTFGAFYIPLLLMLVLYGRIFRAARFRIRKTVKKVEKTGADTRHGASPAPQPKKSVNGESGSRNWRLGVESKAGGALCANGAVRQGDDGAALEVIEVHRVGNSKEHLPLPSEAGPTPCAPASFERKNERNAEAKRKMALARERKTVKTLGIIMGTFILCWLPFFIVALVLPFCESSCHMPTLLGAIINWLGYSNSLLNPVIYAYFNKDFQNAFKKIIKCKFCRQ
M3, sequence (P20309 whole entry): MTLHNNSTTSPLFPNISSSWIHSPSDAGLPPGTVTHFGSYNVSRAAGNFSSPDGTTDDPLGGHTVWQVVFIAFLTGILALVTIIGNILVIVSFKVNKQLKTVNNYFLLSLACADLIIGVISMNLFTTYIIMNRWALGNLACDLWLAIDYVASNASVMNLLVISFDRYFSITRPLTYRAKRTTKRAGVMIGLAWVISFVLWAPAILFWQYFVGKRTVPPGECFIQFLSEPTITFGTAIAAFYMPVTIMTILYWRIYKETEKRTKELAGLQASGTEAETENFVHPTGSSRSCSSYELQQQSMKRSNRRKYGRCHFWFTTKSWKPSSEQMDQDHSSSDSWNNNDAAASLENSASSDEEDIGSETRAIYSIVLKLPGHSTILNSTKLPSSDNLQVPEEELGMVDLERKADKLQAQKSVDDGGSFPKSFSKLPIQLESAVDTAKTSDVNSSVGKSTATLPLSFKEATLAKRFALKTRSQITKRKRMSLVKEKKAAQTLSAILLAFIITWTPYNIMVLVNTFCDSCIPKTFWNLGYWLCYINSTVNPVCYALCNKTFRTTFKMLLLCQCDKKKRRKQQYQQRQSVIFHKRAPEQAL
HERG, sequence (Q12809 whole entry): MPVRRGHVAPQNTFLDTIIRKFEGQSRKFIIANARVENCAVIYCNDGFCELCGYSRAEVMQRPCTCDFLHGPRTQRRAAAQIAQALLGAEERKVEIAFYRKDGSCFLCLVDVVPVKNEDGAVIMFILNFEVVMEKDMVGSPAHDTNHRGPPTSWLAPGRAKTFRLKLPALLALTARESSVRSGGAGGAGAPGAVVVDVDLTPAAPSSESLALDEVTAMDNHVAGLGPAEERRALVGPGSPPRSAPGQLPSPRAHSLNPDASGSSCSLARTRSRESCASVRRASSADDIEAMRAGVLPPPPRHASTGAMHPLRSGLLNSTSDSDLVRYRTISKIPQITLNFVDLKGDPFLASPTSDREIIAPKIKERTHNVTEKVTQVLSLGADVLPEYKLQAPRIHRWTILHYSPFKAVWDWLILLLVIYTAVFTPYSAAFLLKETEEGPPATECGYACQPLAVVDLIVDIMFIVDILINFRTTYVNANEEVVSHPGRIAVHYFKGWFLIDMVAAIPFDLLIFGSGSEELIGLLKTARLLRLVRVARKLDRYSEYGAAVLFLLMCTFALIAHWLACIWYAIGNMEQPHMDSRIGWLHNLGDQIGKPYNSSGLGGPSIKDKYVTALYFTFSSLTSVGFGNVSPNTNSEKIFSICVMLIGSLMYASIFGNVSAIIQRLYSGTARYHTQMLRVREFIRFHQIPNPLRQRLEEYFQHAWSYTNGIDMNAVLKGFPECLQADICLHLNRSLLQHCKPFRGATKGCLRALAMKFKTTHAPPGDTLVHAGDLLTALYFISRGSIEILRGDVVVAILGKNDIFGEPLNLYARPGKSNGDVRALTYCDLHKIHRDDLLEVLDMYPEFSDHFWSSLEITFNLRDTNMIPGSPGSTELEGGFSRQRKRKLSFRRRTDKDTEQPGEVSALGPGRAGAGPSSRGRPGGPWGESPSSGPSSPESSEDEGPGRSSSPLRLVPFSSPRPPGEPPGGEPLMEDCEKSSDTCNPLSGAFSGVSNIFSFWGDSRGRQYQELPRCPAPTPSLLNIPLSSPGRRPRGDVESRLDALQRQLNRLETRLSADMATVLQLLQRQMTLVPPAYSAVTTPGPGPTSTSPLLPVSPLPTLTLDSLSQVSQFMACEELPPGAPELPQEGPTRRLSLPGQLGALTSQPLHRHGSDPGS
5-HT1D, sequence (P28221 whole entry, species assumed): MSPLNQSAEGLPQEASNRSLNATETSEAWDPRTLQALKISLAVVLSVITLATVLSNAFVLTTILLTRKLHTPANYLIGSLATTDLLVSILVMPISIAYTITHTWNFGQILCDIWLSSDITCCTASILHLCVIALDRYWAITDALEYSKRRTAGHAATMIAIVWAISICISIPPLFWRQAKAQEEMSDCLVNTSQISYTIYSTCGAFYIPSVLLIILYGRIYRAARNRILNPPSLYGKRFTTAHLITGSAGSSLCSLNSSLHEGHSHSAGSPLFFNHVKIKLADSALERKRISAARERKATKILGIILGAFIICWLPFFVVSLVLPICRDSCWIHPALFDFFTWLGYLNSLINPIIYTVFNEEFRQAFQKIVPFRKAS
D2, sequence (P14416 whole entry): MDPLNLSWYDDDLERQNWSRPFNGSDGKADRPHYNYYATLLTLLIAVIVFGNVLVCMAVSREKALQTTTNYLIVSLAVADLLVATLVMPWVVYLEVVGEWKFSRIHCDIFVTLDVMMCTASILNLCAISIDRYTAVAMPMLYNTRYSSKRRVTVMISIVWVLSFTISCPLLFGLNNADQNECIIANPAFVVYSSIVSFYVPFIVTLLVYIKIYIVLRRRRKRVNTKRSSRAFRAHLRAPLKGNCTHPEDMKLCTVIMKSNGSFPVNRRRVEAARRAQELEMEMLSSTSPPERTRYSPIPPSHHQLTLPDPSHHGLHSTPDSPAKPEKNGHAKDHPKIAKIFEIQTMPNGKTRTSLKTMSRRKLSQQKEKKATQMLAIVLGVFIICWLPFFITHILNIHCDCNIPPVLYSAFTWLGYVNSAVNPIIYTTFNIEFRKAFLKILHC

For CCc1noc(-c2ncn3c2[C@@H](C)N=C(c2ccccc2F)c2cc(C4CC4)ccc2-3)n1 [GL-IV-03, (R)-5-(8-Cyclopropyl-6-(2-fluorophenyl)-4-methyl-4H-benzo[f]imidazo[1,5-a][1,4]diazepin-3-yl)-3-ethyl-1,2,4-oxadiazole], the “iNOS mRNA levels” value (iNOS mRNA; 15, 60, and 180 minutes) was “reduced” and the “iNOS mRNA levels” value (iNOS mRNA; after 6 h) was “increased”.
In the case of C#Cc1ccc2c(c1)C(c1ccccc1F)=N[C@H](C)c1c(-c3nc(C(C)C)no3)ncn1-2 [MP-IV-010, (R)-5-(8-ethynyl-6-(2-fluorophenyl)-4-methyl-4H-benzo[f]imidazo[1,5-a][1,4]diazepin-3-yl)-3-isopropyl-1,2,4-oxadiazole], the “Percent Competition HERG binding” value (HERG) is reported as 29%, the “Percent Competition Alpha2B” value (Alpha2B) is reported as 29% and the “Percent Competition M1” value (M1) is reported as −11%. The “Percent Competition H2” value (H2) was 28%, the IC50 (σ2 receptor) was 5.2 µM and the “Percent Competition Sigma 2” value (σ2 receptor; PDSP primary screening) was 64%. The “Percent Competition 5-HT1D” value (5-HT1D) was 6%, the “Percent Competition D2” value (D2) was 25% and the “Percent Competition M3” value (M3) was 0%. The “Percent Competition 5-HT1A” value (5-HT1A) was 19%.
